Measurements reported in patent US20240116985A1, “STAPLED PEPTIDES AND METHODS THEREOF” (priority 2020, published 2024).
Converted amounts (≈) assume the structure as drawn. “And” between values parts separate entries of the source, which are not always exact repeats. Identical values can stand only once. Like-named read-outs stand apart in the source and are kept apart here.

Columns and labels:
[1] = biological target: T1, full-length beta-Catenin (Uniprot ID P35222) (Homo sapiens, UniProt P35222); assay: Fluorescence polarization IC50 (beta-catenin / 5FAM-TCF4 10-53 competition); assay type: binding; conditions: read-out: beta-Catenin FP IC50
T1 construct: 10 nM full-length beta-Catenin (Uniprot ID P35222)
T1 sequence (P35222 1-781): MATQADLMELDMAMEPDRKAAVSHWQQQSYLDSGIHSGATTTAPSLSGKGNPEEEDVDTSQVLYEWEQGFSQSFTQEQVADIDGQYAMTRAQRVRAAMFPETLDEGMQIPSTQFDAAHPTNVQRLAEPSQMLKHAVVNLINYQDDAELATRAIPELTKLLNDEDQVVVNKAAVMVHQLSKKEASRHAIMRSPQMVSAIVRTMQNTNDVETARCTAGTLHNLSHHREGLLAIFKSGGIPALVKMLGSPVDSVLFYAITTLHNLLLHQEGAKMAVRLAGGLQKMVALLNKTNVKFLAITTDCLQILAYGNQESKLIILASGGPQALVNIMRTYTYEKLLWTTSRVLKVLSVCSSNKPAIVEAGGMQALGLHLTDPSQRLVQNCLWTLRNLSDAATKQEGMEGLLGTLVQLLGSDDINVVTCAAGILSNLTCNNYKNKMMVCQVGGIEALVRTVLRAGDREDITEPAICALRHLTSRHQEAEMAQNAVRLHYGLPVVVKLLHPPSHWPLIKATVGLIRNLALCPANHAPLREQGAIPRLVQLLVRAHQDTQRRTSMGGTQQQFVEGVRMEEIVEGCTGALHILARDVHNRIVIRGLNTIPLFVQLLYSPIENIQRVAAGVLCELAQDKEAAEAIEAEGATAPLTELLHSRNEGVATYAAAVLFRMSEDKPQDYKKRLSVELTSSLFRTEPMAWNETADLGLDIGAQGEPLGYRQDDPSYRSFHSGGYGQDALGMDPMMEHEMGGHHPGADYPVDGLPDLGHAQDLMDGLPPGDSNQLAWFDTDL

[2] = CHI Log D procedure; assay type: physicochemical; conditions: pH 7.4, CHI Log D
[3] = Solubility in PBS; assay type: physicochemical
In short: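 HPLC quantitation of peptide remaining in the PBS supernatant after ultracentrifugation, referenced to a 50 μM solution in DMSO.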

[4] = biological target: T2, beta-catenin/TCF4 engagement (Homo sapiens, UniProt P35222); assay: Nano-BRET target engagement assay (B-cat-Halo & TCF4-Luc in HEK293 cells); assay type: cell-based
T2 construct: expressed in transfected cells; host or cells: HEK293
T2 sequence (P35222 1-781): T1 sequence (P35222 1-781)

[5] = tested on: TCF/LEF luciferase Reporter in DLD1 cells; assay: TCF reporter assay (DLD1 TCF/LEF luciferase reporter, Bright-Glo); assay type: cell-based; conditions: for DLD1 TCF c2 BrightGlo % Inhibition: replicates
In short: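 DLD1 cells stably carrying a TCF/LEF luciferase reporter were plated at 5000 cells/well in RPMI + 4% FBS and treated overnight with a 1:2 compound dilution series. Bright-Glo luminescence read on day 3; viability by CellTiter-Glo. Absolute IC50 determined.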

[6] = read-out: DLD1 4% Abs IC50, DLD1 4%
[7] = absolute IC50, read-out: NanoBRET Abs IC50
[8] = absolute IC50, read-out: DLD1 reporter assay Abs IC50
[9] = first dose = 20 uM (plate map), 20 µM
[10] = third dose = 5 uM (plate map), 5 µM

Structure (SMILES)	IC50 [1]	chromatographic logD [2]	Solubility ([3]; Solubility (uM))	IC50 ([4]; read-out: NanoBRET Abs IC50)	IC50 ([4]; read-out: NanoBRET IC50)	IC50 [5, 6]	IC50 [4, 7]	IC50 [5, 8]	Solubility [3]	DLD1 TCF c2 BrightGlo % Inhibition [5, 9]	DLD1 TCF c2 BrightGlo % Inhibition ([5]; 0.625 µM)	DLD1 TCF c2 BrightGlo % Inhibition ([5]; 1.25 µM)	DLD1 TCF c2 BrightGlo % Inhibition ([5]; 2.5 µM)	DLD1 TCF c2 BrightGlo % Inhibition ([5]; 10 µM)	DLD1 TCF c2 BrightGlo % Inhibition [5, 10]
CC(=O)N1CCC[C@]12CC=CCCCC1(CCCC=CCCCCCC[C@@](C)(C(=O)N[C@@H](Cc3ccccc3Cl)C(=O)N[C@@H](Cc3csc4ccccc34)C(=O)N[C@@H](CCC(N)=O)C(N)=O)NC(=O)[C@H](CCO)NC(=O)[C@H](Cc3ccccc3)NC(=O)[C@H](C)NC(=O)[C@H](C)NC(=O)[C@H](CN(CC(=O)O)CC(F)(F)F)NC(=O)[C@H](CC(=O)O)NC1=O)NC(=O)[C@H](CC(C)(C)C)NC(=O)[C@H](CC(=O)O)NC2=O (stereo partly drawn) [I-996, Ac-PL3-Asp-Npg-B5-Asp-TfeGA-Ala-Ala-Phe-Hse-S8-2C1F-BztA-Gln-NH2]	0.021 µM	2.84	48 µM (≈ 96.1 µg/mL)			3.6 µM	11.3 µM	10.8 µM							
CC(=O)N1CCC[C@]12CC=CCCCC1(CCCC=CCCCCCC[C@@](C)(C(=O)N[C@@H](Cc3ccccc3Cl)C(=O)N[C@@H](Cc3csc4ccccc34)C(=O)N[C@@H](CCO)C(N)=O)NC(=O)[C@H](CCO)NC(=O)[C@H](Cc3ccccc3)NC(=O)[C@H](C)NC(=O)[C@H](C)NC(=O)[C@H](CN(CC(=O)O)CC(F)(F)F)NC(=O)[C@H](CC(=O)O)NC1=O)NC(=O)[C@H](CC(C)(C)C)NC(=O)[C@H](CC(=O)O)NC2=O (stereo partly drawn) [I-1000, Ac-PL3-Asp-Npg-B5-Asp-TfeGA-Ala-Ala-Phe-Hse-S8-2C1F-BztA-Hse-NH2]	0.018 µM	2.97	44 µM (≈ 86.9 µg/mL)			1.9 µM	23.9 µM	8 µM		79.5% (2×) and 79.7%	−3.4% and 2.4% and 4.9%	−0.6% and −1.2% and 1.5%	5.5% and 10.2% and 12.4%	57.0% and 59.8% and 61.4%	25.7% and 29.9% and 32.3%
CC(=O)N1CCC[C@]12CC=CCCCC1(CCCC=CCCCOC(=O)N3CC[C@@](C(=O)N[C@@H](Cc4ccccc4Cl)C(=O)N[C@@H](Cc4csc5ccccc45)C(=O)N[C@@H](CCC(N)=O)C(N)=O)(C3)NC(=O)[C@H](CC(N)=O)NC(=O)[C@H](Cc3ccccc3)NC(=O)[C@H](C)NC(=O)[C@H](CC(C)C)NC(=O)[C@H](CN(CC(=O)O)CC(F)(F)F)NC(=O)[C@H](CC(=O)O)NC1=O)NC(=O)[C@H](CC(C)(C)C)NC(=O)[C@H](CC(=O)O)NC2=O (stereo partly drawn) [I-1007, Ac-PL3-Asp-Npg-B5-Asp-TfeGA-Leu-Ala-Phe-Asn-PyrS2-2C1F-BztA-Gln-NH2]	0.006 µM	2.45	18 µM (≈ 37.8 µg/mL)				24.9 µM	3.3 µM							
CC(=O)N1CCC[C@]12CC=CCCCC1(CCCC=CCCCOC(=O)N3CC[C@@](C(=O)N[C@@H](Cc4ccccc4Cl)C(=O)N[C@@H](Cc4csc5ccccc45)C(=O)N[C@@H](CCC(N)=O)C(N)=O)(C3)NC(=O)[C@H](CC(N)=O)NC(=O)[C@H](Cc3ccccc3)NC(=O)[C@H](C)NC(=O)[C@H](Cc3ccccc3)NC(=O)[C@H](CN(CC(=O)O)CC(F)(F)F)NC(=O)[C@H](CC(=O)O)NC1=O)NC(=O)[C@H](CC(C)(C)C)NC(=O)[C@H](CC(=O)O)NC2=O (stereo partly drawn) [I-1008, Ac-PL3-Asp-Npg-B5-Asp-TfeGA-Phe-Ala-Phe-Asn-PyrS2-2C1F-BztA-Gln-NH2]	0.009 µM	2.43	34 µM (≈ 72.5 µg/mL)			4.7 µM	14 µM	13 µM							
CC(=O)N1CCC[C@]12CC=CCCCC1(CCCC=CCCCOC(=O)N3CC[C@@](C(=O)N[C@@H](Cc4ccccc4Cl)C(=O)N[C@@H](Cc4csc5ccccc45)C(=O)N[C@@H](CO)C(N)=O)(C3)NC(=O)[C@H]([C@@H](C)O)NC(=O)[C@H](Cc3ccccc3)NC(=O)[C@H](C)NC(=O)[C@H](C)NC(=O)[C@H](CC(N)=O)NC(=O)[C@H](CC(=O)O)NC1=O)NC(=O)[C@H](CC(C)(C)C)NC(=O)[C@H](CC(=O)O)NC2=O (stereo partly drawn) [I-1016, Ac-PL3-Asp-Npg-B5-Asp-Asn-Ala-Ala-Phe-Thr-PyrS2-2ClF-BztA-Ser-NH2]	0.008 µM	2.38					21.4 µM	21.4 µM	10 µM (≈ 18.9 µg/mL)						

Stronger by IC50 [1], values ahead:

IC50 [1]	chromatographic logD [2]	Solubility ([3]; Solubility (uM))	IC50 ([4]; read-out: NanoBRET Abs IC50)	IC50 ([4]; read-out: NanoBRET IC50)	IC50 [5, 6]	IC50 [4, 7]	IC50 [5, 8]	Solubility [3]	Structure (SMILES)	DLD1 TCF c2 BrightGlo % Inhibition [5, 9]	DLD1 TCF c2 BrightGlo % Inhibition ([5]; 0.625 µM)	DLD1 TCF c2 BrightGlo % Inhibition ([5]; 1.25 µM)	DLD1 TCF c2 BrightGlo % Inhibition ([5]; 2.5 µM)	DLD1 TCF c2 BrightGlo % Inhibition ([5]; 10 µM)	DLD1 TCF c2 BrightGlo % Inhibition [5, 10]
0.005 µM	2.1	46 µM (≈ 86.3 µg/mL)	15.4 µM	11.8 µM	10.3 µM				CC(=O)N1CCC[C@]12CC=CCCCC1(CCCC=CCCCOC(=O)N3CC[C@@](C(=O)N[C@@H](Cc4ccsc4)C(=O)N[C@@H](Cc4csc5ccccc45)C(=O)N[C@@H](CO)C(N)=O)(C3)NC(=O)[C@H](CC(N)=O)NC(=O)[C@H](Cc3ccccc3)NC(=O)[C@H](C)NC(=O)[C@H](C)NC(=O)[C@H](CC(=O)O)NC(=O)[C@H](CC(=O)O)NC1=O)NC(=O)[C@H](CC(C)(C)C)NC(=O)[C@H](CC(=O)O)NC2=O (stereo partly drawn) [I-815, Ac-PL3-Asp-Npg-B5-Asp-Asp-Ala-Ala-Phe-Asn-PyrS2-3Thi-BztA-Ser-NH2]						
0.005 µM	2.35	11 µM (≈ 22.6 µg/mL)				13.9 µM	5.2 µM		CC(=O)N1CCC[C@]12CC=CCCCC1(CCCC=CCCCOC(=O)N3CC[C@@](C(=O)N[C@@H](Cc4ccccc4)C(=O)N[C@@H](Cc4csc5ccccc45)C(=O)N[C@@H](CCC(N)=O)C(N)=O)(C3)NC(=O)[C@H](Cc3ccccc3)NC(=O)[C@H](Cc3ccccc3)NC(=O)[C@H](C)NC(=O)[C@H](C)NC(=O)[C@H](CN(CC(=O)O)CC(F)(F)F)NC(=O)[C@H](CC(=O)O)NC1=O)NC(=O)[C@H](CC(C)(C)C)NC(=O)[C@H](CC(=O)O)NC2=O (stereo partly drawn) [I-988, Ac-PL3-Asp-Npg-B5-Asp-TfeGA-Ala-Ala-Phe-Phe-PyrS2-Phe-BztA-Gln-NH2]	78.1% and 81.3% and 81.9%	11.0% and 10.7% and 15.5%	5.7% and 22.3% and 21.2%	13.3% and 28.8% and 33.4%	61.5% and 72.0% and 76.2%	32.0% and 57.8% and 62.0%
0.005 µM	2	47 µM (≈ 97.5 µg/mL)				10.6 µM	> 20 µM		CC(=O)N1CCC[C@]12CC=CCCCC1(CCCC=CCCCOC(=O)N3CC[C@@](C(=O)N[C@@H](Cc4ccccc4Cl)C(=O)N[C@@H](Cc4csc5ccccc45)C(=O)N[C@@H](CCC(N)=O)C(N)=O)(C3)NC(=O)[C@H](CC(N)=O)NC(=O)[C@H](Cc3ccccc3)NC(=O)[C@H](CO)NC(=O)[C@H](C)NC(=O)[C@H](CN(CC(=O)O)CC(F)(F)F)NC(=O)[C@H](CC(=O)O)NC1=O)NC(=O)[C@H](CC(C)(C)C)NC(=O)[C@H](CC(=O)O)NC2=O (stereo partly drawn) [I-1004, Ac-PL3-Asp-Npg-B5-Asp-TfeGA-Ala-Ser-Phe-Asn-PyrS2-2C1F-BztA-Gln-NH2]						
0.005 µM	2.03	23 µM (≈ 48.6 µg/mL)				20.8 µM	> 20 µM		CC(=O)N1CCC[C@]12CC=CCCCC1(CCCC=CCCCOC(=O)N3CC[C@@](C(=O)N[C@@H](Cc4ccccc4Cl)C(=O)N[C@@H](Cc4csc5ccccc45)C(=O)N[C@@H](CCC(N)=O)C(N)=O)(C3)NC(=O)[C@H](CC(N)=O)NC(=O)[C@H](Cc3ccccc3)NC(=O)[C@H](C)NC(=O)[C@H](CCCCN)NC(=O)[C@H](CN(CC(=O)O)CC(F)(F)F)NC(=O)[C@H](CC(=O)O)NC1=O)NC(=O)[C@H](CC(C)(C)C)NC(=O)[C@H](CC(=O)O)NC2=O (stereo partly drawn) [I-1011, Ac-PL3-Asp-Npg-B5-Asp-TfeGA-Lys-Ala-Phe-Asn-PyrS2-2C1F-BztA-Gln-NH2]						
0.005 µM	2.27	47 µM (≈ 88.9 µg/mL)			5.7 µM	8.9 µM	9 µM		CC(=O)N1CCC[C@]12CC=CCCCC1(CCCC=CCCCOC(=O)N3CC[C@@](C(=O)N[C@@H](Cc4ccccc4Cl)C(=O)N[C@@H](Cc4csc5ccccc45)C(=O)N[C@@H](CO)C(N)=O)(C3)NC(=O)[C@H]([C@@H](C)O)NC(=O)[C@H](Cc3ccccc3)NC(=O)[C@H](C)NC(=O)[C@H](C)NC(=O)[C@H](CC(=O)O)NC(=O)[C@H](CC(=O)O)NC1=O)NC(=O)[C@H](CC(C)(C)C)NC(=O)[C@H](CC(=O)O)NC2=O (stereo partly drawn) [I-1015, Ac-PL3-Asp-Npg-B5-Asp-Asp-Ala-Ala-Phe-Thr-PyrS2-2C1F-BztA-Ser-NH2]						
